Reference: paper PMC9510126, “Hydrophobicity is a key determinant in the activity of arginine-rich cell penetrating peptides” (Scientific Reports, 2022)
“Also recorded” adds a separate entry of the source. Ends that are not written are not given here.

Test system: MDA-MB-231 cells
Assay: Delivery of TMR-k5 probe into live cells (nuclear staining)
Format: cell-based, human
Settings: MDA-MB-231, d(X)TAT at various concentrations + TMR-k5 20 μM, 1 h, fluorescence microscopy, biological triplicates
Description: To test the relative delivery efficiency of the d(X)TAT peptides, the cell lines MDA-MB-231 (epithelial-like, human breast cancer, spindle-shaped) and Neuro-2a (mouse neuroblastoma with neuronal and amoeboid stem cell morphology) were chosen. These cell lines are routinely used in cancer research, neuroscience, and toxicology. In the context of this study, we rationalized that the distinct differences in origin and characteristics between MDA-MB-231 and Neuro-2a properties may be useful to assess the generality of the results obtained. MDA-MB-231 or Neuro-2a cells were incubated with d(X)TAT peptides at various concentrations and TMR-k5 (20 μM) for 1 h. Cells were then washed, incubated with the DNA stain Hoechst and the live/dead marker SYTOX green (or SYTOX blue), and imaged by fluorescence microscopy. The localization of TMR-k5 in individual nuclei was then assessed by measuring the overlap between TMR and Hoechst signals (Fig. 2, Figure S13). […] This is because, in our experience, dfTAT and dfTAT analogs display a threshold behavior where, below a certain endosomal concentration, endosomal leakage is not achieved. In contrast above this threshold most late endosomes are permeabilized. […] Our rationale was therefore to titrate cells with different concentrations of d(X)TAT agents, monitor how many cells display cytosolic/nuclear delivery of TMR-k5, and compare the different d(X)TAT peptides.
MDA-MB-231 and Neuro2a cells obtained from ATCC (breast cancer-derived epithelial) were cultured in humidified atmosphere at 5% CO2 and 37 °C. Cells were seeded in plastic 48-well plates (Fisher) for quantitative analysis or 8-well Labtek II plates (Fisher) for qualitative imaging at 100× magnification. The cells were grown to 80–90% confluency in a 37 °C humidified atmosphere containing 5% CO2. Cells were washed three times with Leibovitz’s L15 media (L15) (Fisher). Cells were then incubated with peptide and 20 µM of the TMR-k5 pentalysine probe at 37 °C for 1 h. This was followed by washing the cells three times with L15 supplemented with heparin (Sigma-Aldrich) (1 mg/mL) and an extra L15 wash. […] Additionally, the cell permeable dye Hoechst 33342 (Thermo Fisher Scientific o) was used for nuclear staining. Cells were imaged using an EVOS FL Auto 2 inverted microscope (Thermo Fisher Scientific). The microscope is equipped with a heating chamber maintained at 37 °C. Images were acquired using bright field imaging and five fluorescence filter sets: CFP (Ex = 436 ± 10 nm, Em = 480 ± 20 nm), RFP (Ex = 560 ± 20 nm, Em = 630 ± 35 nm), FITC (Ex = 488 ± 10 nm Em = 520 ± 20 nm), DAPI (Ex = 350 ± 50 nm, Em = 460 ± 25 nm), […]. For image viewing and processing individual images, the Celleste 4.0 software (Thermo Fisher Scientific) was used. Nuclear regions in 20× images where identified using Hoechst staining (the quantification process is described in Figure S13). The intensity of these objects in the TMR channel was then determined using the Celleste software. Cells stained by the SYTOX or DRAQ dyes were considered dead and not counted as positive for delivery. Cells displaying a nuclear TMR-k5 fluorescence above the fluorescence threshold determined for TMR-k5 alone were considered positive for delivery (if excluding SYTOX or DRAQ7 stain, and if visually showing stained nucleoli for confirmation of intracellular localization). The percentage of cells positive for TMR-k5 nuclear staining was then calculated, using Hoechst-stained cells to count the total number of cells present. […] Instead, this assay quantifies the number of cells in which the nuclear fluorescence of TMR-k5 is above a detection threshold. This threshold is dependent on the microscope, imaging conditions, and the concentration of TMR-k5 used during incubation (Figure S13). The reproducibility of all the experiments was assessed by performing experiments with independent batches of cell cultures on three different days (i.e., biological triplicates). […]

**Q.** Which “TMR-k5 delivery activity (cells with TMR-k5 nuclear staining)” value does the source give for “d(K(Ac))TAT: disulfide dimer of CXRKKRRQRRRG with X = lysine conjugated to an acetyl group (CK(Ac)RKKRRQRRRG-NH2; also: disulfide dimer)” here?
**A.** The value was “little to no TMR-k5 delivery is detected; also recorded: no detectable delivery activity; also recorded: does not have a delivery activity detectable”.
